Test results from paper PMC12606464, “Investigating NFE2L1 activators for targeted protein aggregate clearance: a follow-up study” (RSC Medicinal Chemistry, 2025).

Experiments:
Q35-YFP foci = experiment: Q35-YFP aggregation in C. elegans strain AM140; type: in vivo, Caenorhabditis elegans
Experimental: Furthermore, we explored the role of RUN-89 in preventing huntingtin protein aggregation in C. elegans. For this AM140 strain, stably expressing aggregation-prone 35-glutamine long repeats marked with yellow fluorescence protein (Q35-YFP) were used.[82,83] A six-day treatment with 50 μM RUN-89 or a vehicle control was conducted, followed by microscopy analysis. […] These findings highlight the substantial impact of RUN-89 on foci formation or persistence, further supporting its role in suppressing pathological clustering in protein aggregation diseases or reducing stress-response assemblies.
Fig. 5 RUN-89 prevents protein aggregation and increases stress resistance in C. elegans. (A) The AM140 strain expressing aggregation-prone Q35-YFP was treated with 50 μM RUN-89 or the vehicle for 6 days, followed by microscopy analysis. Overall, 959 Q35-YFP foci (DMSO = 517; RUN-89 = 442) were identified in 102 animals (DMSO: N = 3 populations, n = 55 animals in total; RUN-89: N = 3 populations, n = 47 animals in total). The two dashed horizontal lines indicate the interquartile range, and the thick horizontal line represents the median. The Kolmogorov–Smirnov test verified a significant reduction of surface and integrated optical density of foci after RUN-89 treatment. (B) Representative images of two animals per treatment condition. Images were taken on the same day, using identical settings for the instruments used. (C) Protective effect of RUN-89 against juglone and paraquat-induced stress. A synchronized population of N2 wild-type worms was exposed to 50 μM RUN-89 for 24 hours to protect against acute oxidative stress triggered by 180 μM juglone and 200 mM paraquat. The mortality was monitored hourly over a 12 hour period. […] Results were analyzed using the Kaplan–Meier method and are presented as survival percentages with standard errors. […]
Transgenic GR2183 worms carrying the reporter gene (rpt -3p::GFP) were exposed to RUN-89 for 24 hours and for AM140 (rmIs132 [unc-54p::Q35::YFP]) to aged 6 days under treatment to establish protein aggregation model. The worms were then anesthetized with […] sodium azide and placed on glass slides with 5% agar for fluorescence microscope observation. The expression of the rpt-3p::GFP reporter in worms was directly related to the intensity of green fluorescence. Images were captured using a Zeiss Axioskop 2 Plus fluorescence microscope and a Zeiss Axio Observer A1 microscope designed for epifluorescence. Image analysis was performed to assess variations in aggregation (both the count and volume of aggregates) and fluorescence signal intensity using ImageJ software (https://imagej.nih.gov/ij/). […]

[1] = tested on: HCT116 cells expressing EGFP-HttQ74; experiment: PolyQ toxicity assay (EGFP-HttQ74, alamarBlue) in HCT116 WT and DDI2 KO cells; type: cell-based, human; details: 48 h
Experimental: Fig. 3 (A) HEK293 cells were treated with RUN compounds at a concentration of 7.5 μM for 16 hours. DMSO was used as a vehicle control. Proteasome chymotrypsin-like activity was measured in cell lysates at 37 °C. Data came from three biological replicates (n = 3). Statistical analysis was done using ratio paired t-tests corrected for multiple comparisons with Holm–Šídák's method (α = 0.05). *p < 0.05. Detailed results of the analysis are shown in SI Table S7. […] HCT116 parental cells (WT) and two independent DDI2 knockout clones (KO 04 and KO 11), in which NFE2L1 activation is impaired, were transiently transfected with plasmids encoding non-aggregating EGFP-HttQ23 or aggregation-prone EGFP-HttQ74. Cells were treated with 1 or 3 μM RUN-89 for 48 hours, and viability was measured using the alamarBlue assay. […] Data are shown as the Geomean ± GeoSD from four independent biological replicates (n = 4). Statistical analysis was performed on log2-transformed values using two-way repeated-measures ANOVA followed by Šídak's multiple comparison test. (C right) Parental SH-SY5Y cells (without α-synuclein expression) were treated in the same manner. (C left) The protective effect of RUN compounds was assessed by rotenone-induced α-synuclein proteotoxicity in SH-SY5Y cells, which mimics the PD-like phenotype. Cells were pre-treated with increasing concentrations of RUN compounds (0.312, 0.625, 1.25, and 2.5 μM) for 4 hours and then rotenone (1.125 μM) treatment was done for 24 hours.
To further evaluate the protective capacity of RUN-89 in a polyQ aggregation model, we transiently transfected HCT116 parental cells (wt) and DDI2 knockout clones (KO4 and KO11) with plasmids encoding either a non-aggregating EGFP-HttQ23 or an aggregation-prone EGFP-HttQ74 construct. This model is widely used to study Huntington's disease (HD), a prototypical polyglutamine expansion disorder caused by expanded CAG repeats in the huntingtin gene.[67–69] […] Cells were treated with increasing concentrations of RUN-89 (1 and 3 μM) for 48 h, and viability was assessed using the alamarBlue assay (Fig. 3B). […]

[2] = AM140, 50 μM, six-day treatment, versus DMSO

## COc1ccc(/C=C2\CC(NC(=O)C3CCCC3)C/C(=C\c3ccc(OC)c(OC)c3)C2=O)cc1OC (stereo not drawn) [RUN-89]
Q35-YFP foci; [2]
  Q35-YFP foci relative fluorescence density: significant decrease
  Q35-YFP foci surface area: significant decrease
Q35-YFP foci; C. elegans, Fig. 5A, DMSO median 1.00
  Q35-YFP intensity, median: 0.51 fold change to DMSO median
Q35-YFP foci; C. elegans, Fig. 5A, DMSO median 20
  Q35-YFP foci surface, median: 17 voxels
[1]; 1 and 3 μM
  Protective effect in DDI2-deficient clones expressing HttQ74: strongly reduced
  Survival of wild-type cells expressing HttQ74: significantly improved survival
[1]; HCT116 DDI2-/- KO 04, 1 μM, alamarBlue
  Viability of EGFP-HttQ74 cells (mean), KO 04, 1 μM: 41.44
[1]; HCT116 DDI2-/- KO 04, 3 μM, alamarBlue
  Viability of EGFP-HttQ74 cells (mean), KO 04, 3 μM: 16.49
[1]; HCT116 DDI2-/- KO 11, 1 μM, alamarBlue
  Viability of EGFP-HttQ74 cells (mean), KO 11, 1 μM: 59.5
[1]; HCT116 DDI2-/- KO 11, 3 μM, alamarBlue
  Viability of EGFP-HttQ74 cells (mean), KO 11, 3 μM: 37.35
[1]; HCT116 WT, 1 μM, alamarBlue
  Viability of EGFP-HttQ74 cells (mean), WT, 1 μM: 72.36
[1]; HCT116 WT, 3 μM, alamarBlue
  Viability of EGFP-HttQ74 cells (mean), WT, 3 μM: 79.66
